Experimental data from PubChem BioAssay (NCI).
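96-well plates; 48 h exposure; 5 concentrations. Endpoints by linear interpolation between flanking doses. Not reached: highest tested concentration assigned. TGI denotes the concentration required for complete inhibition of growth.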

Columns and labels:
Experiment in all cases: NCI tumour cell line growth inhibition, 48 h
MCF7 breast = tested on: MCF7 breast
HCT-15 colon = tested on: HCT-15 colon
MOLT-4 leukemia = tested on: MOLT-4 leukemia
SK-MEL-5 melanoma = tested on: SK-MEL-5 melanoma
BT-549 breast = tested on: BT-549 breast
MDA-N = tested on: MDA-N
OVCAR-4 ovarian = tested on: OVCAR-4 ovarian
SR leukemia = tested on: SR leukemia
OVCAR-5 ovarian = tested on: OVCAR-5 ovarian
SK-OV-3 ovarian = tested on: SK-OV-3 ovarian
NCI-H460 lung = tested on: NCI-H460 lung
M14 melanoma = tested on: M14 melanoma
OVCAR-8 ovarian = tested on: OVCAR-8 ovarian
MDA-MB-435 = tested on: MDA-MB-435
UACC-257 melanoma = tested on: UACC-257 melanoma
A549 NSCLC = tested on: A549 NSCLC
RPMI-8226 leukemia = tested on: RPMI-8226 leukemia
DU-145 prostate = tested on: DU-145 prostate
HOP-92 NSCLC = tested on: HOP-92 NSCLC
SW-620 colon = tested on: SW-620 colon
NCI-H522 lung = tested on: NCI-H522 lung
NCI-H23 lung = tested on: NCI-H23 lung
SK-MEL-28 melanoma = tested on: SK-MEL-28 melanoma
SN12C renal = tested on: SN12C renal
SF-268 CNS = tested on: SF-268 CNS
U251 CNS = tested on: U251 CNS
SNB-19 CNS = tested on: SNB-19 CNS
PC-3 prostate = tested on: PC-3 prostate
HT29 colon = tested on: HT29 colon
K-562 leukemia = tested on: K-562 leukemia
COLO 205 colon = tested on: COLO 205 colon
HCT-116 colon = tested on: HCT-116 colon
UO-31 renal = tested on: UO-31 renal
ACHN renal = tested on: ACHN renal
HCC-2998 colon = tested on: HCC-2998 colon
EKVX NSCLC = tested on: EKVX NSCLC
SNB-75 CNS = tested on: SNB-75 CNS
CAKI-1 renal = tested on: CAKI-1 renal
TK-10 renal = tested on: TK-10 renal
786-0 renal = tested on: 786-0 renal
MDA-MB-231 breast = tested on: MDA-MB-231 breast
HOP-62 NSCLC = tested on: HOP-62 NSCLC
LOX IMVI melanoma = tested on: LOX IMVI melanoma
SF-295 CNS = tested on: SF-295 CNS
OVCAR-3 ovarian = tested on: OVCAR-3 ovarian
A498 renal = tested on: A498 renal
SK-MEL-2 melanoma = tested on: SK-MEL-2 melanoma
SF-539 CNS = tested on: SF-539 CNS
IGROV1 ovarian = tested on: IGROV1 ovarian
UACC-62 melanoma = tested on: UACC-62 melanoma
NCI-H226 lung = tested on: NCI-H226 lung
NCI/ADR-RES ovarian = tested on: NCI/ADR-RES ovarian
KM12 colon = tested on: KM12 colon

CC(C)(C)[Si](C)(C)OCC1OC(n2ccc(=O)[nH]c2=O)C(O[Si](C)(C)C(C)(C)C)[C@]12O[C@@H]2CO (stereo partly drawn)
TGI (MCF7 breast): 38.2 µM
TGI (HCT-15 colon): 31.1 µM
TGI (MOLT-4 leukemia): 46.3 µM
TGI (SK-MEL-5 melanoma): 34.7 µM
TGI (BT-549 breast): 19.4 µM
TGI (MDA-N): 59 µM
TGI (OVCAR-4 ovarian): 47.4 µM
TGI (SR leukemia): > 100 µM
TGI (OVCAR-5 ovarian): 40.6 µM
TGI (SK-OV-3 ovarian): 30.5 µM
TGI (NCI-H460 lung): 35.1 µM
TGI (M14 melanoma): 43.2 µM
TGI (OVCAR-8 ovarian): > 100 µM
TGI (MDA-MB-435): 35.3 µM
TGI (UACC-257 melanoma): 39.7 µM
TGI (A549 NSCLC): 26.6 µM
TGI (RPMI-8226 leukemia): > 100 µM
TGI (DU-145 prostate): 38.1 µM
TGI (HOP-92 NSCLC): 32.8 µM
TGI (SW-620 colon): 58.7 µM
TGI (NCI-H522 lung): 29.7 µM
TGI (NCI-H23 lung): 30.2 µM
TGI (SK-MEL-28 melanoma): 34.6 µM
TGI (SN12C renal): 36.3 µM
TGI (SF-268 CNS): 42.5 µM
TGI (U251 CNS): 42.6 µM
TGI (SNB-19 CNS): 24 µM
TGI (PC-3 prostate): 16.8 µM
TGI (HT29 colon): 23.8 µM
TGI (K-562 leukemia): > 100 µM
TGI (COLO 205 colon): 42.9 µM
TGI (HCT-116 colon): 39 µM
TGI (UO-31 renal): 21.7 µM
TGI (ACHN renal): 24.2 µM
TGI (HCC-2998 colon): 81.7 µM
TGI (EKVX NSCLC): 36.6 µM
TGI (SNB-75 CNS): 40.4 µM
TGI (CAKI-1 renal): 38.7 µM
TGI (TK-10 renal): 31 µM
TGI (786-0 renal): 44.6 µM
TGI (MDA-MB-231 breast): 39.6 µM
TGI (HOP-62 NSCLC): 30.2 µM
TGI (LOX IMVI melanoma): 40.9 µM
TGI (SF-295 CNS): 23.7 µM
TGI (OVCAR-3 ovarian): 28.4 µM
TGI (A498 renal): 38.7 µM
TGI (SK-MEL-2 melanoma): 28.6 µM
TGI (SF-539 CNS): 47.7 µM
TGI (IGROV1 ovarian): 33.1 µM
TGI (UACC-62 melanoma): 36.8 µM
TGI (NCI-H226 lung): 30.7 µM
TGI (NCI/ADR-RES ovarian): 44 µM
TGI (KM12 colon): 35 µM
